According to US20020086281A1, “Detection of neurodegenerative diseases, in vitro screening assays” (priority 1998, published 2002):

How the values were obtained:
[1] = tested on: LHON 3460 mutation lymphoblasts; experiment: Microphysiometry of LHON cells, 3460 mutation; assay type: cell-based, human; conditions: LHON 3460 mutation cells compared with control; FIG. 4A-4E
Source text: (§1) The rate at which cells excrete protons (the acidification rate) is closely linked to the rate at which they convert nutrients to energy. Because energy metabolism is coupled to ATP consumption, any event that perturbs ATP levels, such as receptor activation or calcium influx, causes a change in energy metabolism and, therefore, an alteration in proton excretion. In addition, receptor activation may also directly affect proton excretion by altering Na/H exchange. A typical microphysiometer, such as the Cytosensor™ (Molecular Devices), uses a silicon-based sensor to measure the rate of proton excretion from 10^4-10^6 cells. Cells are contained in a 3 μL flow chamber in aqueous contact with the pH-sensitive surface of a light-sensitive potentiometric sensor. Flow of medium (with low buffering capacity) and test compounds are determined by a series of microprocessor-controlled pumps. The extracellular acidification rate is determined by measuring the decrease in pH that occurs as acidic metabolites accumulate during brief halts in the flow of medium. The degree of stimulation of the basal acidification is calculated and plotted as a per cent of the basal acidification rate. The sensor takes a voltage measurement that is linearly related to pH. Typically, during a 30-60 sec halt in flow, pH will decrease less than 0.1 pH unit. Reproducible and robust responses are obtained to metabolic inhibitors, growth factors and ionophores in lymphoblast lines. Because virtually any manipulation alters proton excretion, it is relatively easy to determine the types of stimuli to which disease cell lines respond abnormally.
(§2) LHON: Previous work at Emory University has identified causative mitochondrial DNA mutations in LHON patients. Well-characterized LHON patient cell lines have been generated and banked. These cell lines have been characterized by molecular genetic, cellular respiration and enzymology studies. The patient cell lines were obtained from the Emory University Clinical Research Center (Emory University, Atlanta, Ga.).
(§3) Patient lymphocytes are immortalized using the technique of Neitzel H, Human Genetics 73:320-326 (1986). In brief, the lymphocytes are removed from the buffy coat layer following Histopaque density separation. […]
(§4) Lymphoblasts are suspended in agarose entrapment solution at a density of 5×10^5 cells/10 μl, then are plated onto chamber inserts, and allowed to solidify for 20 minutes. […] The rate of acidification is calculated as the slope of a linear least squares fit to the relation of pH versus time during the pump's off period. […]

[2] = tested on: PD lymphoblasts; experiment: Microphysiometry of PD lymphoblasts; assay type: cell-based, human; conditions: PD lymphoblasts compared with controls; FIG. 5A-5D
Source text: as §1, with “abnormally. […]” for “abnormally.”
as §4

[3] = tested on: LHON 14459 mutation lymphoblasts; experiment: Microphysiometry of LHON cells, 14459 mutation; assay type: cell-based, human; conditions: LHON 14459 mutation cells compared with control; FIG. 4A-4E
Source text: as §1, §2, §3, §4

[4] = tested on: sporadic AD lymphoblasts; experiment: Microphysiometry (acidification rate) of sporadic AD lymphoblasts; assay type: cell-based, human; conditions: sporadic AD lymphoblasts compared with controls; FIG. 1A-1D
Source text: as §1, with “Because virtually any manipulation alters proton excretion, it is relatively easy to determine the types of stimuli to which disease cell lines respond abnormally.” left out
Alzheimer's disease: Lymphoblast cell lines were generated from blood samples obtained from patients followed in the Emory Alzheimer's Disease Center. All patients have been evaluated by detailed neurological and neuropsychometric examinations. […]
as §4

[5] = tested on: PC12 cells transfected with two mutant forms of PS1; assay type: cell-based, Rat; conditions: PC12 cells transfected with mutant presenilin-1; FIG. 2A-2D
Source text: as §1
Rat adrenal pheochromocytoma PC 12 cells were stably transfected with PS1 cDNA cloned behind the CMV promoter in pcDNA3. See, e.g., Lah, J. J. et al., J. Neurosci. […]
as §4

[6] = tested on: control cells; experiment: Microphysiometry of control cells, ionomycin response after rotenone; assay type: cell-based, human; conditions: control cells exposed to rotenone; FIG. 3
Source text: as §1, with “Cells are contained in a 3 μL flow chamber in aqueous contact with the pH-sensitive surface of a light-sensitive potentiometric sensor.” left out, “The sensor takes a voltage measurement that is linearly related to pH. Typically, during a 30-60 sec halt in flow, pH will decrease less than 0.1 pH unit. Reproducible and robust responses are obtained to metabolic inhibitors, growth factors and ionophores in lymphoblast lines. Because virtually any manipulation alters proton excretion, it is relatively easy to determine the types of stimuli to which disease cell lines respond abnormally.” left out
as §4

[7] = tested on: HD fibroblasts; experiment: Microphysiometry of HD cells; assay type: cell-based, human; conditions: HD cells compared with control cells; FIG. 3

| Compound | microphysiometric response to the inhibitor or ionophore [1] | microphysiometric response to the inhibitor [2] | microphysiometric response to the inhibitor or ionophore [3] | microphysiometric response (stimulation of acidification rate) to the inhibitor [4] | microphysiometric response to the inhibitor [5] | reproduction of the HD-type altered response to ionomycin [6] | microphysiometric response to the calcium ionophore [7] |
| --- | --- | --- | --- | --- | --- | --- | --- |
| antimycin-A | markedly depressed | do not differ substantially from controls | markedly depressed | markedly blunted | – | – | – |
| CN(C)C(=O)Nc1ccc(Cl)c(Cl)c1 [diuron] | – | – | – | – | similarly depressed response | – | – |
| C=C(C)[C@H]1Cc2c(ccc3c2O[C@@H]2COc4cc(OC)c(OC)cc4[C@@H]2C3=O)O1 [rotenone] | virtually absent | markedly blunted | markedly depressed | markedly blunted | similarly depressed response | can be reproduced in control cells | – |
| O=C(O)CC(=O)O [malonate] | – | do not differ substantially from controls | – | do not differ substantially from controls | normal response | – | – |
| C[C@H](CCC(=O)O)C[C@H](C)C[C@H](C)C(=O)/C=C(\O)[C@H](C)C[C@H](C)C/C=C/[C@@H](C)[C@@H](O)[C@@H](C)[C@@H](O)C[C@@H]1CC[C@@](C)([C@H]2CC[C@@](C)([C@@H](C)O)O2)O1 [ionomycin] | abnormal | – | abnormal | – | – | – | abnormal responses |
| O=C(CC(=O)C(F)(F)F)c1cccs1 [TTFA, Thenoyltrifluoroacetone] | no difference between control and patient lymphoblast responses | – | no difference between control and patient lymphoblast responses | – | – | – | – |
